In patent publication US11555012B2 (Nimbus Artemis, Inc., priority 2018, dated 2023):
Like-named read-outs stand apart in the source and are kept apart here.

Legend:
HepG2 cells [1] = conditions: Homo sapiens, HepG2, read-out: ACLY HepG2 14C-Pyruvate Assay serum free IC50 FA (IC50) [μM]
Description: ACLY HepG2 ^14C-Pyruvate Incorporation Serum-Free Assay (IC50 Fatty
The protocol of the assay (below) was followed:
(§1) After 48 hours, change medium with fresh growth medium.
(§2) After 18 hours, replaced medium using 0.5 mL fresh medium (5.5 mM Glucose, without FBS, 1% PS, without Pyruvate) containing Compounds or 0.5% DMSO, incubated at 37° C., 5% CO2 for 1 hour.
(§3) Add 3 μci of [14C]-pyruvate per well to the cell samples were incubated at 37° C., 5% CO2 for 5 hours.
Medium was removed and placed into a 15 mL centrifuge tube. Add 0.5 mL of 0.1M NaOH to each well and then transfer the cell lysates into the corresponding 15 mL centrifuge tubes. 1.0 mL of EtOH and 0.17 mL 50% KOH were added to 15 mL tubes containing medium and cell suspensions, then shaking tube gently. […] Saponification 15 mL tubes containing medium and cell suspensions were incubated at 90° C. for 1 hour, then cooled to room temperature. […] Cholesterol Extraction 5 mL of petroleum ether was added per tube to extract Cholesterol, shaken vigorously, centrifuged at 1000 rpm for 5 min, and ˜5 mL of the petroleum ether layer was transferred to a new glass tube (18*180 mm). […] Acidification The samples in 15 mL tube were acidified directly with 1 mL concentrated HCl, make sure pH was below 1. […] Fatty Acids Extraction 5 mL of petroleum ether was added per tube, shaken vigorously, centrifuged at 1000 rpm for 5 min, 5 mL of the petroleum ether layer was transferred to the corresponding glass tube. […] Repeat the Step 8 10. Count The petroleum ether extracts were pooled and evaporated to dryness overnight. The residue from the petroleum ether fractions were resuspended in 500 μL of chloroform-hexane (1:1) containing 420 μg of linoleic acid as a carrier. Add 200 μL of resuspending (chloroform-hexane (1:1) containing 168 μg of linoleic acid) to 2 mL Ultima Gold™, after 30 min, count on a scintillation counter.

HepG2 cells [2] = conditions: Homo sapiens, HepG2, read-out: ACLY HepG2 14C-Pyruvate Assay serum free IC50 Cholesterol (IC50) [μM]
Description: ACLY HepG2 ^14C-Pyruvate Incorporation Serum-Free Assay (IC50 Cholesterol and Fatty Acid Synthesis)
Compounds of the present invention were evaluated in a HepG2 ^14C-pyruvate incorporation assay. The protocol below was followed:
as §1, §2, §3
Medium was removed and placed into a 15 mL centrifuge tube. Add 0.5 mL of 0.1M NaOH to each well and then transfer the cell lysates into the corresponding 15 mL centrifuge tubes. 1.0 mL of EtOH and 0.17 mL 50% KOH were added to 15 mL tubes containing medium and cell suspensions, then shaking tube gently. […] Saponification 15 mL tubes containing medium and cell suspensions were incubated at 90° C. for 1 hour, then cooled to room temperature. […] Cholesterol Extraction 5 mL of petroleum ether was added per tube to extract Cholesterol, shaken vigorously, centrifuged at 1000 rpm for 5 min, and ˜5 mL of the petroleum ether layer was transferred to a new glass tube (18*180 mm). […] Acidification The samples in 15 mL tube were acidified directly with 1 mL concentrated HCl, make sure pH was below 1. […] Fatty Acids Extraction 5 mL of petroleum ether was added per tube, shaken vigorously, centrifuged at 1000 rpm for 5 min, 5 mL of the petroleum ether layer was transferred to the corresponding glass tube. […] Count The petroleum ether extracts were pooled and evaporated to dryness overnight. The residue from the petroleum ether fractions were resuspended in 500 μL of chloroform-hexane (1:1) containing 420 μg of linoleic acid as a carrier. Add 200 μL of resuspending (chloroform-hexane (1:1) containing 168 μg of linoleic acid) to 2 mL Ultima Gold™, after 30 min, count on a scintillation counter.

ACL [3] = target: T1, ACL (Homo sapiens (Human), UniProt P53396); assay: ACLY-MDH Coupled Assay
Target sequence in this assay (P53396 whole entry, species assumed): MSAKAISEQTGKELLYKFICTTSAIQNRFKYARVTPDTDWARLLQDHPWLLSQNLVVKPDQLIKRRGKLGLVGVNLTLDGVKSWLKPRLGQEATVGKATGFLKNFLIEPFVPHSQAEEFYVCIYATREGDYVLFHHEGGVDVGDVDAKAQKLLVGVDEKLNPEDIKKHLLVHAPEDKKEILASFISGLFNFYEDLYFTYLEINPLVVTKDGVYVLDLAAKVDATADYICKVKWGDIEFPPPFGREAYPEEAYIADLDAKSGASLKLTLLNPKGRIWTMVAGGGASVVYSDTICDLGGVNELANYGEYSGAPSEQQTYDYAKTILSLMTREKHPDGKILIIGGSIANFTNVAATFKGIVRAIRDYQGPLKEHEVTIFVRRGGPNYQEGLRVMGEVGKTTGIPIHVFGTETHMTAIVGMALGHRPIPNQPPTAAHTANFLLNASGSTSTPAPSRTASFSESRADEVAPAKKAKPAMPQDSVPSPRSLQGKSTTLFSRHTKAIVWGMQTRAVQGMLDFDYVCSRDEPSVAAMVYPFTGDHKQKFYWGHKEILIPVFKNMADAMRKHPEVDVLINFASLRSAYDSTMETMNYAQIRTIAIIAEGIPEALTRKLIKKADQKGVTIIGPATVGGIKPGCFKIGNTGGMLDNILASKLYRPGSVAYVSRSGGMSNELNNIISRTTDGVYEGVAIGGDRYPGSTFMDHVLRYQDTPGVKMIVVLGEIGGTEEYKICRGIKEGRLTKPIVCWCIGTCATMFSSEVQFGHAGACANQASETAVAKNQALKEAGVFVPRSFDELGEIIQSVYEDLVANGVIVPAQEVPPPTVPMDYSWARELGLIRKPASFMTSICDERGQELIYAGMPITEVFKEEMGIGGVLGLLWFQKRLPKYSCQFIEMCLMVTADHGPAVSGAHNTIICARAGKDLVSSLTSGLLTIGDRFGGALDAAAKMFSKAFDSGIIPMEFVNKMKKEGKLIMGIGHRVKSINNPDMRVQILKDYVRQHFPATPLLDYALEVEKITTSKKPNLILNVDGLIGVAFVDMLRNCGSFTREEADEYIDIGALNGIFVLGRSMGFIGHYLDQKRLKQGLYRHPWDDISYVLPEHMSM
Description: Compounds of the present invention were evaluated in an ACLY Coupled Assay.
The assay protocol for the Coupled Assay (below) was followed:
b) Add 1 μL cpds to 96 assay plate, Test cpd conc: 100/30/10 μM top dose, 3 folds dilution, 10+0+control (control: buffer without ACL+DMSO) points, 1000 rpm for 1 min, incubation at 25° C. for 60 min

ACL [4] = target: T1, ACL; assay: ADP-Glo Assay
Target sequence in this assay (P53396 other isoform, or with tags, fused parts or gaps isoform P53396-2): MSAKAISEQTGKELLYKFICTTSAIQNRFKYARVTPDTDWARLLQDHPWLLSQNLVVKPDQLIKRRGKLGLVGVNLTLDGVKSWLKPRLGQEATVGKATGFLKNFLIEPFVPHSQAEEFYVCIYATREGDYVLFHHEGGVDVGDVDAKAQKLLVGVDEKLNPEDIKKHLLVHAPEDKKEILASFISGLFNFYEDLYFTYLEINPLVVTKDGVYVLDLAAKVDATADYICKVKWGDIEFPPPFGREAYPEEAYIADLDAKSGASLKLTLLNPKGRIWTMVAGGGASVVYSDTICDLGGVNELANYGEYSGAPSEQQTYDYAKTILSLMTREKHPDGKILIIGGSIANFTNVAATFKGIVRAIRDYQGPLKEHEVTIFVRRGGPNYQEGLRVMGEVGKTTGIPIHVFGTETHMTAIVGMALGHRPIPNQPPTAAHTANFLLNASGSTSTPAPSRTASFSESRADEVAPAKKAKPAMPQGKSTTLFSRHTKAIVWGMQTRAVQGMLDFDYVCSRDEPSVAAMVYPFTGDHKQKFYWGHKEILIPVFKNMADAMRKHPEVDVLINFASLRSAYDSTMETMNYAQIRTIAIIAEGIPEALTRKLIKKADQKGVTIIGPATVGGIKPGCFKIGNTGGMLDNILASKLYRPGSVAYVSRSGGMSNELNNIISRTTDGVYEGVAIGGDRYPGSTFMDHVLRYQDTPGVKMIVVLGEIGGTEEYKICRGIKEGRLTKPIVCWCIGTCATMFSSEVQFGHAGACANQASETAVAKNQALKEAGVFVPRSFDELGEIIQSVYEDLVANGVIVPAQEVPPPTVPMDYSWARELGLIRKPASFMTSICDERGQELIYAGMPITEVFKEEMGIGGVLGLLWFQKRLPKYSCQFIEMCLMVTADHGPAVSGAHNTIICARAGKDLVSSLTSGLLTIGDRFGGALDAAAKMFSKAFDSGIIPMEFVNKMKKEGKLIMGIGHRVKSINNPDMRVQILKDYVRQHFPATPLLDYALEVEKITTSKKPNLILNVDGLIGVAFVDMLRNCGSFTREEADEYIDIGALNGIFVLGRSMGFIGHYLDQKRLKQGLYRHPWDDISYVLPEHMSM

[5] = read-out: ACL-MDH Coupled Assay (IC50), 8 nM ACL, 60 μM CoA Na2, 85 μM Citrate, 250 μM ATP, 250 μM NADH
[6] = read-out: ACL-ADP-Glo (IC50), 3 nM ACL, 15 μM ATP, 3 μM CoA, 300 μM Citrate

COc1ccc(-c2ccccc2)cc1NS(=O)(=O)c1c(C)c(Cl)cc(Cl)c1O [I-1, 3,5-dichloro-2-hydroxy-N-(4-methoxy-[1,1′-biphenyl]-3-yl)-6-methylbenzenesulfonamide]
IC50 (HepG2 cells [1]): 1 to 10 µM | IC50 (HepG2 cells [2]): 1 to 5 µM | IC50 (ACL [3]): 50 to 500 nM | IC50 (ACL [4]): 50 to 500 nM

COc1ccc(-c2ccc(F)cc2)cc1NS(=O)(=O)c1cc(Cl)cc(Cl)c1O [I-6, 3,5-dichloro-N-(4′-fluoro-4-methoxy-[1,1′-biphenyl]-3-yl)-2-hydroxybenzenesulfonamide]
IC50 (HepG2 cells [1]): > 10 µM | IC50 (HepG2 cells [2]): 1 to 5 µM | IC50 (ACL [3]): 50 to 500 nM | IC50 (ACL [4]): 50 to 500 nM

COc1ccc(-c2cccs2)cc1NS(=O)(=O)c1cc(Cl)cc(Cl)c1O [I-9, 3,5-dichloro-2-hydroxy-N-(2-methoxy-5-(thiophen-2-yl)phenyl)benzenesulfonamide]
IC50 (HepG2 cells [1]): 1 to 10 µM | IC50 (HepG2 cells [2]): 1 to 5 µM | IC50 (ACL [3]): 50 to 500 nM | IC50 (ACL [4]): 50 to 500 nM

COc1cc(-c2ccccc2)ccc1NS(=O)(=O)c1cc(Cl)cc(Cl)c1O [I-13, 3,5-dichloro-2-hydroxy-N-(3-methoxy-[1,1′-biphenyl]-4-yl)benzenesulfonamide]
IC50 (HepG2 cells [1]): 1 to 10 µM | IC50 (HepG2 cells [2]): 1 to 5 µM | IC50 (ACL [3]): 500 to 30000 nM | IC50 (ACL [4]): 500 to 20000 nM

CN(C)C(=O)c1cc(Cl)c(O)c(S(=O)(=O)Nc2cc(-c3ccccc3)c(F)cc2F)c1 [I-83, 3-chloro-5-[(2,4-difluoro-5-phenylphenyl)sulfamoyl]-4-hydroxy-N,N-dimethylbenzamide]
IC50 (HepG2 cells [1]): > 10 µM | IC50 (HepG2 cells [2]): 1 to 5 µM

O=C(O)c1ccc(-c2ccccc2)cc1NS(=O)(=O)c1ccnn1CCc1ccccc1 [I-330]
IC50 (ACL [3]): 500 to 30000 nM | IC50 (ACL [4]): 500 to 20000 nM

O=C(O)c1ccc(-c2ccccc2)cc1NS(=O)(=O)c1cc(Cl)sc1Cl [I-331]
IC50 (ACL [3]): 500 to 30000 nM | IC50 (ACL [4]): 500 to 20000 nM

O=C(O)c1ccc(-c2ccccc2)cc1NS(=O)(=O)c1c(Cl)nc2sccn12 [I-332]
IC50 (ACL [3]): 500 to 30000 nM | IC50 (ACL [4]): 500 to 20000 nM

Cc1sc2ccccc2c1S(=O)(=O)Nc1cc(-c2ccccc2)ccc1C(=O)O [I-333]
IC50 (ACL [3]): 500 to 30000 nM | IC50 (ACL [4]): 500 to 20000 nM

O=C(O)c1ccc(-c2ccccc2)cc1NS(=O)(=O)c1c(Cl)nc2ccc(Br)cn12 [I-334]
IC50 (ACL [3]): 500 to 30000 nM | IC50 (ACL [4]): 500 to 20000 nM

Cc1c(S(=O)(=O)Nc2cc(-c3ccccc3)ccc2C(=O)O)c2ccccc2n1C [I-335]
IC50 (ACL [3]): 500 to 30000 nM | IC50 (ACL [4]): 500 to 20000 nM

O=C(O)c1ccc(-c2ccccc2)cc1NS(=O)(=O)c1ccccc1-c1ccno1 [I-336]
IC50 (ACL [3]): 500 to 30000 nM | IC50 (ACL [4]): 500 to 20000 nM

CC(=O)N1CCc2cc(Br)c(S(=O)(=O)Nc3cc(-c4ccccc4)ccc3C(=O)O)cc21 [I-338]
IC50 (ACL [3]): 500 to 30000 nM | IC50 (ACL [4]): 500 to 20000 nM

O=C(O)c1ccc(-c2ccccc2)cc1NS(=O)(=O)c1cccc2nonc12 [I-339]
IC50 (ACL [3]): 500 to 30000 nM | IC50 (ACL [4]): 500 to 20000 nM

O=C(O)c1ccc(-c2ccccc2)cc1NS(=O)(=O)N1CCC2(CCCCC2)CC1 [I-340]
IC50 (ACL [3]): 500 to 30000 nM | IC50 (ACL [4]): 500 to 20000 nM

CN(C(=O)c1cc(Cl)cc(Cl)c1)c1cc(-c2ccccc2)ccc1C(=O)O [I-347, 3-(3,5-dichloro-N-methylbenzamido)-[1,1′-biphenyl]-4-carboxylic Acid]
IC50 (ACL [3]): 500 to 30000 nM | IC50 (ACL [4]): 500 to 20000 nM

O=C(O)c1ccc(-c2ccccc2)cc1NS(=O)(=O)c1cc(Cl)c[nH]c1=O [I-350, 3-((5-chloro-2-oxo-1,2-dihydropyridine)-3-sulfonamido)-[1,1′-biphenyl]-4-carboxylic acid]
IC50 (ACL [3]): 500 to 30000 nM | IC50 (ACL [4]): 500 to 20000 nM

O=c1[nH]cc(C(F)(F)F)cc1S(=O)(=O)Nc1cc(-c2ccccc2)ccc1F [I-355, N-[4-fluoro-[1,1-biphenyl]-3-yl]-2-oxo-5-(trifluoromethyl)-1,2-dihydropyridine-3-sulfonamide]
IC50 (ACL [3]): 500 to 30000 nM | IC50 (ACL [4]): 50 to 500 nM

O=C(O)c1ccc(-c2cccs2)cc1NS(=O)(=O)c1cc(Cl)cc(C(F)(F)F)c1 [I-366, 2-((3-chloro-5-(trifluoromethyl)phenyl)sulfonamido)-4-(thiophen-2-yl)benzoic Acid]
IC50 (ACL [3]): 50 to 500 nM | IC50 (ACL [4]): 50 to 500 nM

O=c1[nH]cc(Cl)cc1S(=O)(=O)Nc1cc(-c2cc3ccccc3s2)ccc1F [I-367, N-(5-(benzo[b]thiophen-2-yl)-2-fluorophenyl)-5-chloro-2-oxo-1,2-dihydropyridine-3-sulfonamide]
IC50 (ACL [3]): 500 to 30000 nM | IC50 (ACL [4]): 500 to 20000 nM

O=S(=O)(Nc1ccoc1)c1cc(Cl)cc(Cl)c1 [I-368, 3,5-dichloro-N-(furan-3-yl)benzenesulfonamide]
IC50 (ACL [3]): > 30000 nM | IC50 (ACL [4]): 50 to 500 nM

COc1ccc(-c2ccccc2)cc1NS(=O)(=O)c1ccc(-c2nn[nH]n2)cc1 [I-407, N-(2-methoxy-5-phenylphenyl)-4-(2H-1,2,3,4-tetrazol-5-yl)benzene-1-sulfonamide]
IC50 (ACL [3]): > 30000 nM | IC50 (ACL [4]): > 20000 nM

COc1ccc(-c2cc3ccccc3s2)cc1NS(=O)(=O)c1cc(C(=O)N2CCC2)cc(Cl)c1O [I-503, 5-(azetidine-1-carbonyl)-N-(5-(benzo[b]thiophen-2-yl)-2-methoxyphenyl)-3-chloro-2-hydroxybenzenesulfonamide]
IC50 (ACL [3]; [5]): < 50 nM | IC50 (ACL [4]; [6]): < 50 nM

CCOC(=O)c1cc(Cl)c(O)c(S(=O)(=O)Nc2cc(-c3cc4ccccc4s3)c(F)cc2F)c1 [I-505, ethyl 3-(N-(5-(benzo[b]thiophen-2-yl)-2,4-difluorophenyl)sulfamoyl)-5-chloro-4-hydroxybenzoate]
IC50 (ACL [3]; [5]): < 50 nM | IC50 (ACL [4]; [6]): < 50 nM

O=C(O)c1cc(Cl)c(O)c(S(=O)(=O)Nc2cc(-c3cc4ccccc4s3)c(F)cc2OC(F)(F)F)c1 [I-508, 3-(N-(5-(benzo[b]thiophen-2-yl)-4-fluoro-2-(trifluoromethoxy)phenyl)sulfamoyl)-5-chloro-4-hydroxybenzoic Acid]
IC50 (ACL [3]): 500 to 30000 nM | IC50 (ACL [4]): 50 to 500 nM

O=S(=O)(Nc1cc(-c2ccccc2)ccc1OC(F)(F)F)c1cc(Cl)cc(Cl)c1O [I-509, 3,5-dichloro-2-hydroxy-N-(4-(trifluoromethoxy)-[1,1′-biphenyl]-3-yl)benzenesulfonamide]
IC50 (ACL [3]): 50 to 500 nM | IC50 (ACL [4]): 50 to 500 nM

COc1cc(F)c(-c2cc3ccccc3s2)cc1NS(=O)(=O)c1cc(C(=O)O)cc(Cl)c1O [I-510]
IC50 (ACL [3]): 500 to 30000 nM | IC50 (ACL [4]): 500 to 20000 nM

O=C(c1cncs1)N(c1ccc(Cl)cc1)S(=O)(=O)c1cc(Br)cc(Cl)c1O [I-511, N-((5-bromo-3-chloro-2-hydroxyphenyl)sulfonyl)-N-(4-chlorophenyl)thiazole-5-carboxamide]
IC50 (ACL [3]): 500 to 30000 nM | IC50 (ACL [4]): 500 to 20000 nM

CC#Cc1cc(Cl)ccc1NS(=O)(=O)c1cc(Br)cc(Cl)c1O [I-512]
IC50 (ACL [3]): 500 to 30000 nM | IC50 (ACL [4]): 500 to 20000 nM

CCN(c1ccc(Cl)cc1)S(=O)(=O)c1cc(Br)cc(Cl)c1O [I-513, 5-bromo-3-chloro-N-(4-chlorophenyl)-N-ethyl-2-hydroxybenzene Sulfonamide]
IC50 (ACL [3]): 500 to 30000 nM | IC50 (ACL [4]): 500 to 20000 nM

O=S(=O)(c1cc(Br)cc(Cl)c1O)N(Cc1cncs1)c1ccc(Cl)cc1 [I-514, 5-bromo-3-chloro-N-(4-chlorophenyl)-2-hydroxy-N-(thiazol-5-ylmethyl)benzenesulfonamide]
IC50 (ACL [3]): 500 to 30000 nM | IC50 (ACL [4]): 500 to 20000 nM

O=C(Nc1cc(-c2cc3ccccc3s2)ccc1C(=O)O)c1cc(Cl)cc(Cl)c1 [I-515, 4-(benzo[b]thiophen-2-yl)-2-(3,5-dichlorobenzamido)benzoic Acid]
IC50 (ACL [3]): 500 to 30000 nM | IC50 (ACL [4]): 500 to 20000 nM
